Converted amounts (≈) assume the structure as drawn.
Key:
[1] = system: MCF7; test: Cytotoxicity against human breast carcinoma MCF-7 cell lines; assay type: functional; details: read-out: ED50 (the source's name)
[2] = system: A549; test: Cytotoxicity against human lung carcinoma A-549 cell lines; assay type: functional; details: read-out: ED50 (the source's name)
[3] = system: A498; test: Cytotoxicity against human kidney carcinoma A-498cell lines; assay type: functional; details: read-out: ED50 (the source's name)
[4] = Lethality in Brine shrimp lethality test; details: artemia
[5] = system: MIA PaCa-2; test: Cytotoxicity against human pancreatic carcinoma MIA PaCa-2 cell lines; assay type: functional; details: read-out: ED50 (the source's name)
[6] = system: PC-3; test: Cytotoxicity against human prostate adenocarcinoma PC-3 cell lines; assay type: functional; details: read-out: ED50 (the source's name)
[7] = system: HT-29; test: Cytotoxicity against human colon adenocarcinoma HT-29 cell lines; assay type: functional; details: read-out: ED50 (the source's name)

Structure (SMILES)	EC50 [1]	EC50 [2]	EC50 [3]	LC50 [4]	EC50 [5]	EC50 [6]	EC50 [7]
CCCCCCCCCCCCC(O)[C@H]1CC[C@H]([C@H](O)CCCCCCCCCCC(O)CC2=C[C@H](C)OC2=O)O1 (single isomer, unassigned)	5400 ng/mL (≈ 9300 nM)	0.00316 ng/mL (≈ 0.00544 nM)	66.7 ng/mL (≈ 115 nM)	183 ng/mL (≈ 315 nM)	51.8 ng/mL (≈ 89.2 nM)	8410 ng/mL (≈ 14500 nM)	–
COc1cccc2c1C(=O)c1c(O)c3c(c(O)c1C2=O)C[C@@](O)(C(=O)CO)C[C@@H]3O[C@H]1C[C@H](N)[C@H](O)[C@H](C)O1 [DOXORUBICIN]	420 ng/mL (≈ 773 nM)	3.99 ng/mL (≈ 7.34 nM)	2.26 ng/mL (≈ 4.16 nM)	–	1.36 ng/mL (≈ 2.5 nM)	34.9 ng/mL (≈ 64.2 nM)	24.3 ng/mL (≈ 44.7 nM)
CCCCCCCCCCCCC(O)[C@@H]1CC[C@H]([C@H](O)CCCCCCCCCCC(O)CC2=C[C@H](C)OC2=O)O1 (single isomer, unassigned)	3150 ng/mL (≈ 5420 nM)	–	–	207 ng/mL (≈ 356 nM)	1.5 ng/mL (≈ 2.58 nM)	2360 ng/mL (≈ 4060 nM)	–
CCCCCCCCCCCCC(O)C1CC[C@H]([C@H](O)CCCCCCCCCCC(O)CC2=C[C@H](C)OC2=O)O1 (single isomer, unassigned)	15.8 ng/mL (≈ 27.2 nM)	3.41 ng/mL (≈ 5.87 nM)	4160 ng/mL (≈ 7160 nM)	346 ng/mL (≈ 596 nM)	15.3 ng/mL (≈ 26.3 nM)	1420 ng/mL (≈ 2440 nM)	1270 ng/mL (≈ 2190 nM)

— ChEMBL document CHEMBL1128154, “16,19-cis-murisolin and murisolin a, two novel bioactive mono-tetrahydrofuran annonaceous acetogenins from Asimina triloba seeds” (Bioorg Med Chem Lett, 1995)
